This note sets out measurements from patent US8148391B2 (Cephalon, Inc., priority 2006, dated 2012).

For the first experiment, the target named is T1, baculovirus-expressed ALK (Homo sapiens, UniProt Q9UM73).
T1 construct: host or cells: baculovirus expression system
T1 sequence (Q9UM73 19-1620): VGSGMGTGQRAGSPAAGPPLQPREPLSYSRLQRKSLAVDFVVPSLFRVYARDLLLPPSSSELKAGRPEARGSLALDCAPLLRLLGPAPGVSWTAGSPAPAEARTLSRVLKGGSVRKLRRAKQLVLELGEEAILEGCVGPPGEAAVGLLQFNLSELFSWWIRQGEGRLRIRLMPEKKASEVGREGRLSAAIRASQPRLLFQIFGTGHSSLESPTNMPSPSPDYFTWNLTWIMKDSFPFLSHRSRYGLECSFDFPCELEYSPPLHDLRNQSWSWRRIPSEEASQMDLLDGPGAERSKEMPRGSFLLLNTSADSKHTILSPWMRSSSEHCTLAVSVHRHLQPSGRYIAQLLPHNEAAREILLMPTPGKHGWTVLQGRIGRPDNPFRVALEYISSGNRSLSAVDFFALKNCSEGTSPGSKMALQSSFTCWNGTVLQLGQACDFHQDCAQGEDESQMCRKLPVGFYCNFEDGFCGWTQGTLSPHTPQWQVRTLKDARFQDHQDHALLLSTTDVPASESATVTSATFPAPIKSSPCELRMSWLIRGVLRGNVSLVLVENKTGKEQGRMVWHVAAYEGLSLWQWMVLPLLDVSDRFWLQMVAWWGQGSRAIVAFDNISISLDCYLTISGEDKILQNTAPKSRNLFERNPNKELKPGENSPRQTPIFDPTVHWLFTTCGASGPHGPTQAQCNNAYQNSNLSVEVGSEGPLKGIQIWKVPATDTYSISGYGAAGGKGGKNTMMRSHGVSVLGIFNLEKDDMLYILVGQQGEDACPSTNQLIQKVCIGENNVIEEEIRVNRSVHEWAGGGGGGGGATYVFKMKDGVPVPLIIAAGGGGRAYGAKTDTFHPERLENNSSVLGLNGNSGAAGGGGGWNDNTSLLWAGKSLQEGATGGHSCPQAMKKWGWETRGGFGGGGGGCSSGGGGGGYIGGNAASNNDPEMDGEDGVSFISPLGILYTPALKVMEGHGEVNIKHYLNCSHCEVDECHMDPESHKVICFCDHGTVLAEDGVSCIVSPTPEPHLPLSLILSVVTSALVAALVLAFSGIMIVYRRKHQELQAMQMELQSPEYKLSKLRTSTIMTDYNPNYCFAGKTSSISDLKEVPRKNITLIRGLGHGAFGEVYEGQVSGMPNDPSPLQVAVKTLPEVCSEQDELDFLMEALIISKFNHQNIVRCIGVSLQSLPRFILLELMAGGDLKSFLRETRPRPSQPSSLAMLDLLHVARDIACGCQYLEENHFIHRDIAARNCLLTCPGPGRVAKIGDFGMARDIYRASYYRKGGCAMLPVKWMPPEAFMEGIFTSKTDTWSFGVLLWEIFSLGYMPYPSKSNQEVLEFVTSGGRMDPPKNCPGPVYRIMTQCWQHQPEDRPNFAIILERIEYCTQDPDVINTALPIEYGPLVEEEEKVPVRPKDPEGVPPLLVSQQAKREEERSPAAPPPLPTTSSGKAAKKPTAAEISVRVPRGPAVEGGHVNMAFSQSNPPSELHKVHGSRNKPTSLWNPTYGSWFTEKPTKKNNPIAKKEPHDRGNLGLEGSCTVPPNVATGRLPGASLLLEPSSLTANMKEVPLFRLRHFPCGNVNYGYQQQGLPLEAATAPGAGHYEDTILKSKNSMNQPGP
The experiment can be described thus: ALK Kinase Assay (ELISA-type, time-resolved fluorescence). In kind it is biochemical. Particulars: 1 μM ATP (Km level), 30 ng/ml ALK, 37° C., 15 minutes; read-out: ALK Activity (ALK kinase inhibition, IC50 class). As to the method: Briefly, each 96-well plate was coated with 100 μL/well of 10 μg/mL substrate (phospholipase C-γ) in Tris-buffered saline (TBS). […] The reaction was initiated by adding enzyme (30 ng/ml ALK) and was allowed to proceed at 37° C. for 15 minutes. Detection of the phosphorylated product was performed by adding 100 μl/well of Eu-N1 labeled PT66 antibody (Perkin Elmer # AD0041).
Data analysis was performed using ActivityBase (IDBS, Guilford, UK). IC50 values were calculated by plotting percent inhibition versus log10 of the concentration of compound and fitting to the nonlinear regression sigmoidal dose-response (variable slope) equation in XLFit (IDBS, Guilford, UK).
`CNC(=O)c1cccc(F)c1Nc1nc(Nc2ccc3c(c2)NC(=O)C(NC(C)=O)CC3(C)C)ncc1Cl` (centres unmarked) [Example 1289, 2-[2-(3-Acetylamino-5,5-dimethyl-2-oxo-2,3,4,5-tetrahydro-1H-1-benzazepin-8-ylamino)-5-chloro-pyrimidin-4-ylamino]-3-fluoro-N-methyl-benzamide]: the IC50 fell in the range of 0.1 to 1 µM.
In the case of `CCOC(=O)N1CCCOc2ccc(Nc3ncc(Cl)c(Nc4c(F)cccc4C(=O)NC)n3)cc21` [Example 1410, 2-[5-Chloro-4-(2-fluoro-6-methylcarbamoyl-phenylamino)-pyrimidin-2-ylamino]-7,8-dihydro-6H-5-oxa-9-aza-benzocycloheptene-9-carboxylic acid ethyl ester], the IC50 was 0.1 to 1 µM.
Still for that read-out and setting: for `CNC(=O)c1cccc(F)c1Nc1nc(Nc2ccc3c(c2)OCCCN3C(=O)OC(C)C)ncc1Cl` [Example 1432, 3-[5-Chloro-4-(2-fluoro-6-methylcarbamoyl-phenylamino)-pyrimidin-2-ylamino]-7,8-dihydro-6H-5-oxa-9-aza-benzocycloheptene-9-carboxylic acid isopropyl ester] the value was 0.1 to 1 µM.
As to `CCCNC(=O)c1ccccc1Nc1nc(Nc2ccc3c(c2)CCCC(=O)N3C)ncc1Cl` [Example 1025, 2-[5-Chloro-2-(1-methyl-2-oxo-2,3,4,5-tetrahydro-1H-benzo[b]azepin-7-ylamino)-pyrimidin-4-ylamino]-N-propyl-benzamide], the IC50 is below 0.1 µM.
In the case of `CCCCNC(=O)c1ccccc1Nc1nc(Nc2ccc3c(c2)CCCC(=O)N3C)ncc1Cl` [Example 1030, N-Butyl-2-[5-chloro-2-(1-methyl-2-oxo-2,3,4,5-tetrahydro-1H-benzo[b]azepin-7-ylamino)-pyrimidin-4-ylamino]-benzamide], the IC50 was below 0.1 µM.
Regarding `CNC(=O)c1cccc(F)c1Nc1nc(Nc2ccc3c(c2)OCCCN3C(=O)OCCCN(C)C)ncc1Cl` [Example 1426, 3-[5-Chloro-4-(2-fluoro-6-methylcarbamoyl-phenylamino)-pyrimidin-2-ylamino]-7,8-dihydro-6H-5-oxa-9-aza-benzocycloheptene-9-carboxylic acid 3-dimethylamino-propyl ester], the IC50 lay within 0.1 to 1 µM.
The same measure, in the same setting: with `CNC(=O)c1cccc(F)c1Nc1nc(Nc2ccc3c(c2)OCCCN3C(=O)OC)ncc1Cl` [Example 1431, 3-[5-Chloro-4-(2-fluoro-6-methylcarbamoyl-phenylamino)-pyrimidin-2-ylamino]-7,8-dihydro-6H-5-oxa-9-aza-benzocycloheptene-9-carboxylic acid methyl ester] the figure was 0.1 to 1 µM; with `CNC(=O)c1cccc(F)c1Nc1nc(Nc2ccc3c(c2)NC(=O)C(NC(=O)OC)CC3(C)C)ncc1Cl` (centres unmarked) [Example 1299, {8-[5-Chloro-4-(2-fluoro-6-methylcarbamoyl-phenylamino)-pyrimidin-2-ylamino]-5,5-dimethyl-2-oxo-2,3,4,5-tetrahydro-1H-1-benzazepin-3-yl}-carbamic acid methyl ester], 0.1 to 1 µM.
Take `CNC(=O)c1cccc(F)c1Nc1nc(Nc2ccc3c(c2)NC(=O)C(NC(=O)COC)CC3(C)C)ncc1Cl` (centres unmarked) [Example 1292, 2-{5-Chloro-2-[3-(2-methoxy-acetylamino)-5,5-dimethyl-2-oxo-2,3,4,5-tetrahydro-1H-1-benzazepin-8-ylamino]-pyrimidin-4-ylamino}-3-fluoro-N-methyl-benzamide]: the IC50 fell in the range of 0.1 to 1 µM.
For the molecule `CNC(=O)c1cccc(F)c1Nc1nc(Nc2ccc3c(c2)NC(=O)C(NC(=O)CN(C)C)CC3(C)C)ncc1Cl` (centres unmarked) [Example 1285, 2-{5-Chloro-2-[3-(2-dimethylamino-acetylamino)-5,5-dimethyl-2-oxo-2,3,4,5-tetrahydro-1H-1-benzazepin-8-ylamino]-pyrimidin-4-ylamino}-3-fluoro-N-methyl-benzamide], the IC50 lay within 0.1 to 1 µM.

Still in this experiment, the particulars now being: ALK kinase inhibition, 1 μM ATP (Km level); read-out: ALK Activity.
For `CN1C(=O)CCCc2cc(Nc3ncc(Cl)c(Nc4ccccc4C(N)=O)n3)ccc21` [Example 7, 2-[5-Chloro-2-(1-methyl-2-oxo-2,3,4,5-tetrahydro-1H-benzo[b]azepin-7-ylamino)-pyrimidin-4-ylamino]-benzamide], the IC50 was below 0.1 µM.
On the same count and under the same terms, with `CNC(=O)c1ccccc1Nc1nc(Nc2ccc3c(c2)C(C)(C)CCC(=O)N3)ncc1Cl` [Example 381, 2-[5-Chloro-2-(5,5-dimethyl-2-oxo-2,3,4,5-tetrahydro-1H-benzo[b]azepin-7-ylamino)-pyrimidin-4-ylamino]-N-methyl-benzamide] the figure was below 0.1 µM.
Still for that read-out and setting: with `CNC(=O)c1ccccc1Nc1nc(Nc2ccc3c(c2)CCN(CCOC)CC3)ncc1Cl` [Example 34, 2-{5-Chloro-2-[3-(2-methoxy-ethyl)-2,3,4,5-tetrahydro-1H-benzo[d]azepin-7-ylamino]-pyrimidin-4-ylamino}-N-methyl-benzamide] the figure was below 0.1 µM; with `CNC(=O)c1cccc(Cl)c1Nc1nc(Nc2ccc3c(c2)CCN(CCOC)CC3)ncc1Cl` [Example 312, 3-Chloro-2-{5-chloro-2-[3-(2-methoxy-ethyl)-2,3,4,5-tetrahydro-1H-benzo[d]azepin-7-ylamino]-pyrimidine-4-ylamino}-N-methyl-benzamide], 0.1 to 1 µM; with `CNC(=O)c1cccc(F)c1Nc1nc(Nc2ccc3c(c2)N(CCOC)C(=O)CCC3)ncc1Cl` [Example 362, 2-{5-Chloro-2-[1-(2-methoxy-ethyl)-2-oxo-2,3,4,5-tetrahydro-1H-benzo[b]azepin-8-ylamino]-pyrimidin-4-ylamino}-3-fluoro-N-methyl-benzamide], below 0.1 µM.
On to `CNC(=O)c1cccc(Cl)c1Nc1nc(Nc2ccc3c(c2)C(C)(C)CCC(=O)N3)ncc1Cl` [Example 382, 3-Chloro-2-[5-chloro-2-(5,5-dimethyl-2-oxo-2,3,4,5-tetrahydro-1H-benzo[b]azepin-7-ylamino)-pyrimidin-4-ylamino]-N-methyl-benzamide], for which the IC50 was in the range of 0.1 to 1 µM.

Staying with this experiment, now noted: ALK kinase inhibition, 1 μM ATP; read-out: ALK Activity.
With `CNC(=O)c1cccc(F)c1Nc1nc(Nc2ccc3c(c2)OCCCN3C(C)=O)ncc1Cl` [Example 1724, 2-[2-(9-Acetyl-6,7,8,9-tetrahydro-5-oxa-9-aza-benzocyclohepten-3-ylamino)-5-chloro-pyrimidin-4-ylamino]-3-fluoro-N-methyl-benzamide], the IC50 was in the range of 0.1 to 1 µM.
In the case of `CNC(=O)c1cccc(F)c1Nc1nc(Nc2ccc3c(c2)OCCCN3)ncc1Cl` [Example 1723, 2-[5-Chloro-2-(6,7,8,9-tetrahydro-5-oxa-9-aza-benzocyclohepten-3-ylamino)-pyrimidin-4-ylamino]-3-fluoro-N-methyl-benzamide], the IC50 is 0.1 to 1 µM.
For the molecule `CCN1CCCOc2ccc(Nc3ncc(Cl)c(Nc4c(F)cccc4C(=O)NC)n3)cc21` [Example 1697, 2-[5-Chloro-2-(9-ethyl-6,7,8,9-tetrahydro-5-oxa-9-aza-benzocyclohepten-2-ylamino)-pyrimidin-4-ylamino]-3-fluoro-N-methyl-benzamide], the IC50 was 0.1 to 1 µM.
With `CNC(=O)c1cccc(F)c1Nc1nc(Nc2ccc3c(c2)N(C(C)=O)CCCO3)ncc1Cl` [Example 1701, 2-[2-(9-Acetyl-6,7,8,9-tetrahydro-5-oxa-9-aza-benzocyclohepten-2-ylamino)-5-chloro-pyrimidin-4-ylamino]-3-fluoro-N-methyl-benzamide], the IC50 was 0.1 to 1 µM.
For `CNC(=O)c1cccc(F)c1Nc1nc(Nc2ccc3c(c2)OCCCN3CCN2CCCC2)ncc1Cl` [Example 1718, 2-{5-Chloro-2-[9-(2-pyrrolidin-1-yl-ethyl)-6,7,8,9-tetrahydro-5-oxa-9-aza-benzocyclohepten-3-ylamino]-pyrimidin-4-ylamino}-3-fluoro-N-methyl-benzamide], the IC50 is below 0.1 µM.
Take `CNC(=O)c1cccc(F)c1Nc1nc(Nc2ccc3c(c2)NC(=O)CCC3(C)C)ncc1Cl` [Example 1574, 2-[5-Chloro-2-(5,5-dimethyl-2-oxo-2,3,4,5-tetrahydro-1H-benzo[b]azepin-8-ylamino)-pyrimidin-4-ylamino]-3-fluoro-N-methyl-benzamide]: the IC50 was in the range of 0.1 to 1 µM.
On to `CNC(=O)c1cccc(F)c1Nc1nc(Nc2ccc3c(c2)OCCCN3C(=O)COC)ncc1Cl` [Example 1726, 2-{5-Chloro-2-[9-(2-methoxy-acetyl)-6,7,8,9-tetrahydro-5-oxa-9-aza-benzocyclohepten-3-ylamino]-pyrimidin-4-ylamino}-3-fluoro-N-methyl-benzamide], for which the IC50 was 0.1 to 1 µM.
Consider `CNC(=O)c1cccc(F)c1Nc1nc(Nc2ccc3c(c2)N(CCOC)C(=O)CCC3(C)C)ncc1Cl` [Example 1581, 2-{5-Chloro-2-[1-(2-methoxy-ethyl)-5,5-dimethyl-2-oxo-2,3,4,5-tetrahydro-1H-benzo[b]azepin-8-ylamino]-pyrimidin-4-ylamino}-3-fluoro-N-methyl-benzamide], for which the IC50 was below 0.1 µM.
In the case of `CNC(=O)c1cccc(F)c1Nc1nc(Nc2ccc3c(c2)N(C(C)C)C(=O)CCC3(C)C)ncc1Cl` [Example 1588, 2-[5-Chloro-2-(1-isopropyl-5,5-dimethyl-2-oxo-2,3,4,5-tetrahydro-1H-benzo[b]azepin-8-ylamino)-pyrimidin-4-ylamino]-3-fluoro-N-methyl-benzamide], the IC50 was below 0.1 µM.
For `CCN1C(=O)CCC(C)(C)c2ccc(Nc3ncc(Cl)c(Nc4c(F)cccc4C(=O)NC)n3)cc21` [Example 1576, 2-[5-Chloro-2-(1-ethyl-5,5-dimethyl-2-oxo-2,3,4,5-tetrahydro-1H-benzo[b]azepin-8-ylamino)-pyrimidin-4-ylamino]-3-fluoro-N-methyl-benzamide], the IC50 is below 0.1 µM.
